Earlier results as cited in patent US20250093362A1, “HIGH-THROUGHPUT ENGINEERING OF MOLECULAR GLUES” (Frontier Medicines Corporation, priority 2021, published 2025).

Target: CDK12-cyclin K and CUL4 adaptor protein DDB1 (Homo sapiens, UniProt Q16531+Q9NYV4)
Conditions: analog of CR8 lacking a single methylene group; Nat. 2020, 585 (7824), 293

CDK12-cyclin K and CUL4 adaptor protein DDB1, sequence (Q9NYV4 713-1052 limits assumed): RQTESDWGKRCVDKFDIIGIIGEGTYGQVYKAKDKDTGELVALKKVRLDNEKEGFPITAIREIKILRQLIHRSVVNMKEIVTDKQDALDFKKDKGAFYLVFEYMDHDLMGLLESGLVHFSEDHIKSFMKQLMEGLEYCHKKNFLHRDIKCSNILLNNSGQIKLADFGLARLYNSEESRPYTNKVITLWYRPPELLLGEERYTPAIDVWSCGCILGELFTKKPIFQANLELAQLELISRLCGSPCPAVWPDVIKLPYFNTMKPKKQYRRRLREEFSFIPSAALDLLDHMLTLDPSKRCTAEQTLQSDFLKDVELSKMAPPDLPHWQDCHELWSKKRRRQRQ
CDK12-cyclin K and CUL4 adaptor protein DDB1, sequence (O75909 1-267 partner limits assumed): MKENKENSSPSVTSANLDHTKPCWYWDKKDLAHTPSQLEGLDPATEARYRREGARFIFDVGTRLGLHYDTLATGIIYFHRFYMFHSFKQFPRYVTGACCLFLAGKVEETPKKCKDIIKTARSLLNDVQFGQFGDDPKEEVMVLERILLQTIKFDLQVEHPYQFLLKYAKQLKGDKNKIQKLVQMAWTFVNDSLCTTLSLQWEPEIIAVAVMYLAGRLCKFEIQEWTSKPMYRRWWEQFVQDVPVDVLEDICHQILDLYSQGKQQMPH
CDK12-cyclin K and CUL4 adaptor protein DDB1, sequence (Q16531 whole entry): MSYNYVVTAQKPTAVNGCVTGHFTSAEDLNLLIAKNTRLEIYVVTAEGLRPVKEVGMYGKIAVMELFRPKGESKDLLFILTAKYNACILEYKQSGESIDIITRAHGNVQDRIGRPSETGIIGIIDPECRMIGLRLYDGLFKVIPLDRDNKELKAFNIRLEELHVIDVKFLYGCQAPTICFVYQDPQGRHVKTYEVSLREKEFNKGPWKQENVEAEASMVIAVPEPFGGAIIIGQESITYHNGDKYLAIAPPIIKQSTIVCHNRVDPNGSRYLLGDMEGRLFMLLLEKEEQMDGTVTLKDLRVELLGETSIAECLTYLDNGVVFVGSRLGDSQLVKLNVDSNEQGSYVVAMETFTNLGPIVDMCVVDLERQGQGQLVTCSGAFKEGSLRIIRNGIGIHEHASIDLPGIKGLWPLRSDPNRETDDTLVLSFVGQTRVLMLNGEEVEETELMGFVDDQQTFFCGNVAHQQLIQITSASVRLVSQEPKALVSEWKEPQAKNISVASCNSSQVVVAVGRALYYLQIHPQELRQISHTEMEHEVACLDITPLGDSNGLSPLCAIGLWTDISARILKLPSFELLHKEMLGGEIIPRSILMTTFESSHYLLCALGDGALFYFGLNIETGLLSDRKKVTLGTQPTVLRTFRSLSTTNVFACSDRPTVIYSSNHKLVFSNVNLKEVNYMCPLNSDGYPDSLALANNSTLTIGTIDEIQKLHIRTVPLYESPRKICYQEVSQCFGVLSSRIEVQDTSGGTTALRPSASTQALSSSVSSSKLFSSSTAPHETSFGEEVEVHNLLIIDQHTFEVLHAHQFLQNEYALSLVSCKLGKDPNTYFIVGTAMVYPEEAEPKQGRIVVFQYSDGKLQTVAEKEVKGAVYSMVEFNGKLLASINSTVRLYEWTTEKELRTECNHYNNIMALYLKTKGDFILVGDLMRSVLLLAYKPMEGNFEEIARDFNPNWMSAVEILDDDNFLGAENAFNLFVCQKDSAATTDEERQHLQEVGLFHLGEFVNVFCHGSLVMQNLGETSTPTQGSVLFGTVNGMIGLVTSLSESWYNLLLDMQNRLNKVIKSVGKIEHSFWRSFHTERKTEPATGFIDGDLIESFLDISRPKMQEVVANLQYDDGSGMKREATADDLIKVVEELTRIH

driving formation of the ternary complex of CDK12-cyclin K and DDB1: ineffectual
SMILES: CC[C@H](CO)Nc1nc(Nc2ccc(-c3ccccn3)cc2)c2ncn(C(C)C)c2n1 [DRF053]
